The test system of one test is wheat leaf blight fungus. As to the kind of experiment: Test Example 3: growth of wheat leaf blight fungus in YBG medium, microtiter plate, absorbance at 550 nm. In kind it is cell-based, Mycosphaerella graminicola. To be noted: single use, 18° C., six days. The method, then: The present compound 1-1 or the present compound 2-1 was dissolved into dimethyl sulfoxide such that each concentration of the present compound 1-1 or the present compound 2-1 was adjusted to one hundred fifty times as much as the concentration indicated in the below-mentioned Table 5. The resultant agent solution was dispensed into a microtiter plate (with 96 wells) in 1 μl portion thereof per well. One hundred forty nine (149) μl of YBG medium. (which was prepared by dissolving 10 g of yeast extract, 10 g of Bacto Peptone, and 20 mL of glycerol into 1 L of water, followed by sterilizing the medium) was dispensed into the wells to which the agent solution(s) was/were dispensed. The plate was cultivated at 18° C. for six days, thereby allowing wheat leaf blight fungus to undergo proliferation, and the absorbance at 550 nm of each well of the micro titer plate was then measured to examine a degree of growth of the wheat leaf blight fungus (hereinafter referred to as “treated group”).
Whereas, wheat leaf blight fungus was proliferated similarly to the case of the treated group except that dimethyl sulfoxide was used instead of the agent solution, and the degree of the growth was examined (hereinafter referred to as “untreated group”). The efficacy was calculated from the respective obtained degree of growth by the below-mentioned “Equation 1”.
Efficacy (%)=100×(X−Y)/X Equation 1 […]

The subject of test [1] is wheat rust fungus (Puccinia recondita). As to the kind of experiment: Test Example 4: foliar spray of flowable formulations on potted wheat, wheat rust lesion area. In kind it is in vivo. Particulars: wheat (cultivar. Shirogane), single use. On the procedure:
Five (5) parts of the present compound 1-1, 35 parts of a mixture of white carbon and ammonium polyoxyethylene alkyl ether sulfate (the weight ratio of 1:1) and […] of water were mixed, and the mixture was then finely-ground by a wet grinding method to obtain a flowable formulation comprising the present compound 1-1. Separately, the flowable formulation comprising the present compound 2-1 was prepared according to the above-mentioned similar method except that the present compound 2-1 was used instead of the present compound 1-1 to form a flowable formulation comprising the present compound 2-1.
Each of the above-mentioned respective flowable formulations, and the flowable formulation comprising the present compound 1-1 and the present compound 2-1 that was prepared according to the above-mentioned Formulation Example 3 was diluted with water such that each concentration of the respective compounds in the dilution solutions was adjusted to that indicated in Table 6, to prepare the dilution solutions, respectively.
A plastic pot was filled with soil, and thereto wheat (cultivar. Shirogane) was seeded, and the plants were grown in a greenhouse for ten days. […]
From each of the lesion area of the treated group and the untreated group, respectively, the efficacy of the treated group was calculated by the below-mentioned Equation 2. […]

Results on one compound are retold here after patent US20190000081A1, “PLANT DISEASE CONTROL COMPOSITION AND PLANT DISEASE CONTROL METHOD” (SUMITOMO CHEMICAL COMPANY, LIMITED, priority 2015, published 2019).

Each structure is given as a SMILES string.

In the case of `Cc1nnc(Cl)c(-c2c(F)cccc2F)c1-c1ccccc1` [Present compound 1-1], the “Efficacy (%)” value is reported as 4% in the test with wheat leaf blight fungus (concentration in medium 0.005 ppm), 75% with wheat leaf blight fungus (concentration in medium 0.1 ppm), 20% in test [1] (concentration 0.0001 ppm) and 31% in test [1] (concentration 0.01 ppm).
